Data taken from patent US11034702B2, “Thienoisoquinolines and their derivatives for the treatment of cancer” (VALORBEC, SOCIÉTÉ EN COMMANDITE, priority 2016, dated 2021).

Key:
[1] = system: MCF-10A (mammary gland fibrocystic disease) non-cancer cells; test: IC50 (viability) in MCF-10A non-cancer cells; assay type: cell-based; conditions: Homo sapiens, MCF10A non-cancer cells
Protocol: (§1) 19 variants with different structural modifications have been made. […] In particular, it is shown that C75 causes death in multiple cancer cells with IC50 values in the 100 nM range, including breast cancers (MCF7, BT549), lung cancer (A549), colorectal cancer (HCT116) in addition to HeLa cells (cervical cancer).

[2] = system: MCF-7 (mammary gland carcinoma) cells; test: IC50 (viability) in MCF-7 cells; assay type: cell-based; conditions: Homo sapiens, MCF7
Protocol: as §1

[3] = system: A549 cells; test: Mitotic arrest (percentage of cells in mitosis) in A549 cells; assay type: cell-based, human; conditions: A549, within one population doubling time
Protocol: FIG. 2A) is a line graph showing the percentage of HCT116 (p53−/−) cells, A549 cells, HeLa cells and H1299 cells in mitosis after treatment with various concentrations of C75 for one population doubling time. All of the cell lines show an increase in the proportion of mitotic cells after treatment with 200 nM C75. The bars indicate standard deviation. […] While the mitotic spindles were not dramatically altered by C75 in HFF1 cells, they were monopolar (as shown) or fragmented in the other cell types. […] The mitotic spindles were more strongly fragmented after C75 treatment in these cells vs. the cells in FIG. 2B). […] While mitotic spindles recovered bipolarity after removing nocodazole, they remained multipolar after removing C75. FIG. 2F) is a series of time-lapse images of a live HeLa cell expressing GFP:tubulin after treatment with C75 as shown in 2D) and 2E). The scale bar for all cells is 10 μm. FIG. 2G) is a schematic showing the putative target for C75. […]
C75 was also tested for efficacy in different cancer cell lines. […] To further assess the role of C75 in affecting centrosomes, HeLa cells were treated with C75 for a short period of time (5 minutes), then C75 was removed and the cells were analyzed for spindle phenotypes (schematic in FIG. 2D). […]

For `COc1ccc(S(=O)(=O)N2Cc3ccccc3-c3sc(Br)cc32)cc1` [Compound C75], the IC50 [1] was 309 nM, the IC50 [2] was 101 nM and the “concentration causing mitotic arrest” value [3] was 100 to 200 nM.
